US10227357B2, “Compounds and methods for kinase modulation, and indications therefor” (Plexxikon Inc., priority 2012, dated 2019)

Columns and labels:
c-kit mutant D816V = target: T1, c-kit mutant D816V (Homo sapiens, UniProt P10721, D816V/DEL694-753); assay: c-Kit mutant D816V biochemical assay, AlphaScreen; conditions: c-kit D816V biochemical inhibitory activity; read-out: Biochemical activity (IC50 μM) Kit D816V
T1 construct: residues 551-934, kinase insertion domain residues 694-753 deleted; 6x-histidine (N); made in house; host or cells: E. coli Arctic Express (DE3) RIL (Stratagene)
Summary of the method: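 Purified His-tagged c-Kit D816V (E. coli-expressed) assayed in 25 mM HEPES pH 7.2 with Mg/Mn, 5% DMSO and 10 μM ATP, 30 min at room temperature, 8-point 1:3 dilutions. Phosphorylation detected by AlphaScreen with streptavidin donor and PY20 acceptor beads; IC50 from signal versus concentration.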

c-kit kinase = target: T2, c-kit kinase (Homo sapiens, UniProt P10721); assay: c-Kit biochemical assay, AlphaScreen, 10 μM ATP; conditions: c-kit biochemical inhibitory activity; read-out: Biochemical activity (IC50 μM) Kit
T2 construct: The c-kit (or kinase domain thereof) is an active kinase in AlphaScreen; poly-Histidine tag (in-house protein only) (cleaved yes); host or cells: E. coli BL21(DE3)RIL, co-expressed with PTP1B
Summary of the method: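 His-tagged c-Kit expressed in E. coli with co-expressed PTP1B (dephosphorylated), tag removed; 0.1 ng per reaction with biotinylated-peptide substrate in 50 mM HEPES pH 7.2, 5 mM MgCl2, 5 mM MnCl2, 5% DMSO, 10 μM ATP, 1 h at room temperature. Phosphorylation detected by AlphaScreen (streptavidin donor, PY20 acceptor beads); IC50 from 8-point 1:3 dilution series.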

[1] = tested on: cells with activating c-kit mutations in the catalytic region; conditions: Ma et al., 2002; cited from earlier work
D816V KIT mutation = D816V KIT mutation (Homo sapiens, UniProt P10721, D816V); conditions: Frost et al., 2002; cited from earlier work
D816V KIT mutation, sequence (P10721 26-976 D816V): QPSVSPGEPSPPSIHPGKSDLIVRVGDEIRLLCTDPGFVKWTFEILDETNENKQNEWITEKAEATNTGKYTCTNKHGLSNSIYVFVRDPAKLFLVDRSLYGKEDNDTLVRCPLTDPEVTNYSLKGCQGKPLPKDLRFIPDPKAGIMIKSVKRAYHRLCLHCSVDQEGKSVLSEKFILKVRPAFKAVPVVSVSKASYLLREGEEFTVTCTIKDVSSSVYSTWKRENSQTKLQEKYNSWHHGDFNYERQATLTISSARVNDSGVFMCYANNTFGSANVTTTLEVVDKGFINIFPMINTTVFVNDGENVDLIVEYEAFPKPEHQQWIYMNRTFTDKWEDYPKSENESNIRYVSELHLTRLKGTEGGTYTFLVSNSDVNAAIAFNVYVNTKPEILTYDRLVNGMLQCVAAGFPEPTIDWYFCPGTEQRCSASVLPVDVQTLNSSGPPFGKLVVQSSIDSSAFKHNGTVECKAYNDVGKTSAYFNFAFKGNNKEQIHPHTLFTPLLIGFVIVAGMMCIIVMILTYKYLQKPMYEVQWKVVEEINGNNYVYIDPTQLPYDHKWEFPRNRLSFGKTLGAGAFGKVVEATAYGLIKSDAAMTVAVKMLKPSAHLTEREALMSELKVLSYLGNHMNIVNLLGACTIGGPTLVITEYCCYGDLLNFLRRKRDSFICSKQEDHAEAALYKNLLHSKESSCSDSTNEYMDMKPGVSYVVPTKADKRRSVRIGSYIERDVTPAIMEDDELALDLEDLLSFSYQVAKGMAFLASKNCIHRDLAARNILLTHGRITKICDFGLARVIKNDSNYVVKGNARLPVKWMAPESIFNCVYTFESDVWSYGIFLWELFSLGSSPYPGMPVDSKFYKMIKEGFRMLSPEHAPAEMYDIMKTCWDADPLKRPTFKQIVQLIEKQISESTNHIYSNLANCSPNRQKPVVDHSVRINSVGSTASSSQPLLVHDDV

T1 sequence (P10721 with tags, fused parts or gaps DEL694-753/D816V): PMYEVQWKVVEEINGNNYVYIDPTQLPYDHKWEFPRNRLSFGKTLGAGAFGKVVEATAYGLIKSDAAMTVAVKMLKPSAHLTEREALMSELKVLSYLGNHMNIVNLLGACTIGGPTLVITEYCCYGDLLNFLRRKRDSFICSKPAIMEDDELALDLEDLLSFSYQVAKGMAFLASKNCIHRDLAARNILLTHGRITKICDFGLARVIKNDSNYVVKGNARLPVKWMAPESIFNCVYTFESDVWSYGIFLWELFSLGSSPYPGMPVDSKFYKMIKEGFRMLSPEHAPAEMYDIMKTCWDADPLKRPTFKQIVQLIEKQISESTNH
T2 sequence (P10721 26-976): as the sequence (P10721 26-976 D816V) above, with V791D counted along it

Structure (SMILES)	IC50 (c-kit mutant D816V) [µM]	IC50 (c-kit kinase) [µM]	inhibition of cells with c-kit mutations in the catalytic region [1]	sensitivity of D816V KIT mutation (D816V KIT mutation)
Cc1ccc([C@H](C)NC(=O)N2CCN(c3ncnc4[nH]c(-c5ccc(F)cc5)cc34)C[C@H]2C)cc1 [P-0712, (2R)-4-[6-(4-fluorophenyl)-7H-pyrrolo[2,3-d]pyrimidin-4-yl]-2-methyl-N-[(1S)-1-(p-tolyl)ethyl]piperazine-1-carboxamide]	0.0001 to 1	10 to 200		
CCOc1cccc(-c2[nH]c(C3CCN(c4ncnc5[nH]c(-c6ccnc(OC)c6)cc45)CC3)nc2C)c1 [P-0714, 4-[4-[5-(3-ethoxyphenyl)-4-methyl-1H-imidazol-2-yl]-1-piperidyl]-6-(2-methoxy-4-pyridyl)-7H-pyrrolo[2,3-d]pyrimidine]	0.0001 to 1	10 to 200		
Cc1nn(C)cc1-c1cc2c(N3CCN(C(=O)N[C@@H](C)c4ccc(F)cc4)[C@H](C)C3)ncnc2[nH]1 [P-0715, (2R)-4-[6-(1,3-dimethylpyrazol-4-yl)-7H-pyrrolo[2,3-d]pyrimidin-4-yl]-N-[(1S)-1-(4-fluorophenyl)ethyl]-2-methyl-piperazine-1-carboxamide]	0.0001 to 1	1 to 10		
Cc1nn(C)cc1-c1cc2c(N3CCN(C(=O)N[C@@H](C)c4ccc(Cl)cc4)CC3)ncnc2[nH]1 [P-0716, N-[(1S)-1-(4-chlorophenyl)ethyl]-4-[6-(1,3-dimethylpyrazol-4-yl)-7H-pyrrolo[2,3-d]pyrimidin-4-yl]piperazine-1-carboxamide]	0.0001 to 1	10 to 200		
C[C@H](NC(=O)N1CCN(c2ncnc3[nH]c(-c4cnn(C)c4)cc23)C[C@H]1C)c1ccc(Cl)cc1 [P-0717, (2R)-N-[(1S)-1-(4-chlorophenyl)ethyl]-2-methyl-4-[6-(1-methylpyrazol-4-yl)-7H-pyrrolo[2,3-d]pyrimidin-4-yl]piperazine-1-carboxamide]	0.0001 to 1	1 to 10		
Cc1nn(C)cc1-c1cc2c(N3CCN(C(=O)N[C@@H](C)c4ccc(Cl)cc4)[C@H](C)C3)ncnc2[nH]1 [P-0718, (2R)-N-[(1S)-1-(4-chlorophenyl)ethyl]-4-[6-(1,3-dimethylpyrazol-4-yl)-7H-pyrrolo[2,3-d]pyrimidin-4-yl]-2-methyl-piperazine-1-carboxamide]	0.0001 to 1	0.0001 to 1		
Cc1ccc([C@H](C)NC(=O)N2CCN(c3ncnc4[nH]c(-c5ccc(F)cc5)cc34)CC2(C)C)cc1 [P-0719, 4-[6-(4-fluorophenyl)-7H-pyrrolo[2,3-d]pyrimidin-4-yl]-2,2-dimethyl-N-[(1S)-1-(p-tolyl)ethyl]piperazine-1-carboxamide]	0.0001 to 1	0.0001 to 1		
C[C@H](NC(=O)N1CCN(c2ncnc3[nH]c(-c4cnn(C)c4)cc23)CC1(C)C)c1ccc(F)cc1 [P-0720, N-[(1S)-1-(4-fluorophenyl)ethyl]-2,2-dimethyl-4-[6-(1-methylpyrazol-4-yl)-7H-pyrrolo[2,3-d]pyrimidin-4-yl]piperazine-1-carboxamide]	0.0001 to 1	0.0001 to 1		
Cc1nn(C)cc1-c1cc2c(N3CCN(C(=O)N[C@@H](C)c4ccc(F)cc4)C(C)(C)C3)ncnc2[nH]1 [P-0721, 4-[6-(1,3-dimethylpyrazol-4-yl)-7H-pyrrolo[2,3-d]pyrimidin-4-yl]-N-[(1S)-1-(4-fluorophenyl)ethyl]-2,2-dimethyl-piperazine-1-carboxamide]	0.0001 to 1	0.0001 to 1		
C[C@H](NC(=O)N1CCN(c2ncnc3[nH]c(-c4cnn(C)c4)cc23)CC1(C)C)c1ccc(Cl)cc1 [P-0722, N-[(1S)-1-(4-chlorophenyl)ethyl]-2,2-dimethyl-4-[6-(1-methylpyrazol-4-yl)-7H-pyrrolo[2,3-d]pyrimidin-4-yl]piperazine-1-carboxamide]	0.0001 to 1	0.0001 to 1		
Cc1nn(C)cc1-c1cc2c(N3CCN(C(=O)N[C@@H](C)c4ccc(Cl)cc4)C(C)(C)C3)ncnc2[nH]1 [P-0723, N-[(1S)-1-(4-chlorophenyl)ethyl]-4-[6-(1,3-dimethylpyrazol-4-yl)-7H-pyrrolo[2,3-d]pyrimidin-4-yl]-2,2-dimethyl-piperazine-1-carboxamide]	0.0001 to 1	0.0001 to 1		
Cc1nn(C)cc1-c1cc2c(N3CCN(C(=O)N[C@@H](C)c4ccc(F)cc4)CC3)ncnc2[nH]1 [P-0724, 4-[6-(1,3-dimethylpyrazol-4-yl)-7H-pyrrolo[2,3-d]pyrimidin-4-yl]-N-[(1S)-1-(4-fluorophenyl)ethyl]piperazine-1-carboxamide]	0.0001 to 1	0.0001 to 1		
C[C@H](NC(=O)N1CCN(c2ncnc3[nH]c(-c4cnn(C)c4)cc23)C[C@H]1C)c1ccc(F)cc1 [P-0725, (2R)-N-[(1S)-1-(4-fluorophenyl)ethyl]-2-methyl-4-[6-(1-methylpyrazol-4-yl)-7H-pyrrolo[2,3-d]pyrimidin-4-yl]piperazine-1-carboxamide]	0.0001 to 1	0.0001 to 1		
CCc1ccc(S(=O)(=O)NC2CCN(c3ncnc4[nH]c(-c5cn(C)nc5C)cc34)CC2)cc1 [P-0726, N-[1-[6-(1,3-dimethylpyrazol-4-yl)-7H-pyrrolo[2,3-d]pyrimidin-4-yl]-4-piperidyl]-4-ethyl-benzenesulfonamide]	0.0001 to 1	0.0001 to 1		
CCc1ccc(S(=O)(=O)NC2CCN(c3ncnc4[nH]c(-c5ccnc(OC)c5)cc34)CC2)cc1 [P-0727, 4-ethyl-N-[1-[6-(2-methoxy-4-pyridyl)-7H-pyrrolo[2,3-d]pyrimidin-4-yl]-4-piperidyl]benzenesulfonamide]	0.0001 to 1	0.0001 to 1		
Cc1cc2c(N3CCC(NS(=O)(=O)c4ccc(Cl)cc4)CC3)ncnc2[nH]1 [P-0728, 4-chloro-N-[1-(6-methyl-7H-pyrrolo[2,3-d]pyrimidin-4-yl)-4-piperidyl]benzenesulfonamide]	0.0001 to 1	0.0001 to 1		
Cc1cc2c(C3=CCC(NS(=O)(=O)c4ccc(Cl)cc4)CC3)ncnc2[nH]1 (centres unmarked) [P-0729, 4-chloro-N-[4-(6-methyl-7H-pyrrolo[2,3-d]pyrimidin-4-yl)cyclohex-3-en-1-yl]benzenesulfonamide]	0.0001 to 1	0.0001 to 1		
CCc1ccc(S(=O)(=O)NC2CCN(c3ncnc4[nH]c(C)cc34)CC2)s1 [P-0730, 5-ethyl-N-[1-(6-methyl-7H-pyrrolo[2,3-d]pyrimidin-4-yl)-4-piperidyl]thiophene-2-sulfonamide]	0.0001 to 1	0.0001 to 1		
Cc1ccc(NC(=O)c2ccc(CN3CCN(C)CC3)cc2)cc1Nc1nccc(-c2cccnc2)n1 [STI571]			did not inhibit	
Cc1ccc(NC(=O)c2ccc(CN3CCN(C)CC3)cc2)cc1Nc1nccc(-c2cccnc2)n1 [imatinib]				resistant
